Measurements taken from publication PMC9317316, “Synthesis and Evaluation of Some New 4H-Pyran Derivatives as Antioxidant, Antibacterial and Anti-HCT-116 Cells of CRC, with Molecular Docking, Antiproliferative, Apoptotic and ADME Investigations” (Pharmaceuticals, 2022).
“And” between values parts separate entries of the source, which are not always exact repeats. Identical values can stand only once. Like-named read-outs stand apart in the source and are kept apart here.

What was measured:
[1] = DPPH radical scavenging assay; settings: for IC50: 0.03 to 1 mg/mL, 1 h, mean ± SD, triplicate, read-out: IC50 (mM) for DPPH Scavenging Potency
Experimental: The IC50 values for DPPH were calculated from the plot of the scavenging effect against the compound concentration.
The compounds’ capacities to scavenge the stable radical 1,1 diphenyl-2-picrylhydrazyl (DPPH) formed in solution by donation of a hydrogen atom or an electron was investigated according to the method described by Bersuder and coworkers. Due to the fact that the initial blue/purple solution of diphenyl picrylhydrazine changes to yellow in the presence of compounds with a capacity to scavenge DPPH free radicals, this reaction is used as a measure of a compound’s ability to scavenge any free radical. Briefly, a 0.5 mL volume of DPPH ethanolic solution was mixed with an equal volume of each sample concentration (0.03 to 1 mg/mL), shaken strongly and incubated at room temperature for 1 h in darkness. The absorbance of the residual DPPH radicals was measured at 519 nm and compared to that of the control (without the tested compound). DPPH radical scavenging was calculated using the following formula: Scavenging effect (%) = (1 − Acompound/AControl) × 100, where Acompound and Acontrol are the absorbances of the tested compound and of the control, respectively. A plot of the scavenging effect (%) versus the sample concentration was also performed to determine the compound concentration providing 50% inhibition (IC50).

[2] = system: S. aureus (ATCC 25923); experiment: Antibacterial agar diffusion method (inhibition zone); assay type: cell-based
Experimental: (§1) The results for the in vitro antibacterial properties of the synthesized compounds against five Gram-positive and four Gram-negative human-pathogenic strains, which were assessed by both the agar diffusion method (based on inhibition zone (IZ)) and the broth dilution bioassay (for the determination of the half-maximal inhibitory concentration (IC50) values), using ampicillin as the reference antibiotic drug, are shown in Table 2 and Table 3.
(§2) The antibacterial activity of all synthesized compounds was evaluated against the Gram-negative strains E. coli (ATCC 25966), K. pneumonia (ATCC 700603), P. aeruginosa (ATCC 27853) and S. enteric (ATCC 43972) and against the Gram-positive strains B. cereus (ATCC 14579), B. subtilis (ATCC 6633), E. faecalis (ATCC 29122), S. aureus (ATCC 25923) and S. epidermidis (ATCC 14990), using the agar diffusion method through measuring the appearance of the inhibition zone on the surface of the top agar, as reported by Berghe and Vlietinck. Ampicillin (10 µg/well) was used as the positive reference standard. Bacterial viability was also investigated by determining the colony-forming ability (CFU) of bacteria incubated at different time intervals without or with appropriate amounts of the compound, which were mixed with 2 ×10^7 CFU/mL in sterile BHI and incubated under shaking for 60 min at 37 °C. Samples were serially diluted into sterile BHI, streaked onto media agar plates and incubated for 24 h at 37 °C. The antibacterial potency of the tested compounds was expressed as the residual number of CFUs with reference to the initial inoculums. The results presented as the half-maximal (50 %) inhibitory concentration (IC50) values are the means of three different measurements.

[3] = system: B. subtilis (ATCC 6633); experiment: as above; assay type: cell-based
Experimental: as §1, §2

[4] = system: S. enteric (ATCC 43972); experiment: as above; assay type: cell-based
Experimental: as §1, §2

[5] = system: B. cereus (ATCC 14579); experiment: as above; assay type: cell-based
Experimental: as §1, §2

[6] = system: K. pneumonia (ATCC 700603); experiment: as above; assay type: cell-based
Experimental: as §1, §2

[7] = system: S. epidermidis (ATCC 14990); experiment: as above; assay type: cell-based
Experimental: as §1, §2

[8] = system: E. coli (ATCC 25966); experiment: as above; assay type: cell-based; settings: E. coil (ATCC 25966)
Experimental: as §1, §2

[9] = system: P. aeruginosa (ATCC 27853); experiment: as above; assay type: cell-based
Experimental: as §1, §2

[10] = system: E. faecalis (ATCC 29122); experiment: as above; assay type: cell-based
Experimental: as §1, §2

[11] = system: HCT-116 cells; experiment: Cell viability (cytotoxicity, LDH release) assay; assay type: cell-based; settings: Homo sapiens, 24 h; for viability at 100 µg/mL: read-out: percent of viable cells
Experimental: The synthesized compounds were also examined at four concentrations (10, 25, 50 and 100 µg/mL) for their cytotoxic effects on human colorectal cancer HCT-116 cells after their incubation together for 24 h.
Cytotoxic potency was examined for a human colon cancer cell line HCT-116 (American Type Culture Collection; Manassas, VA, USA) using various amounts of each compound (10, 25, 50 and 100 µg). Samples were diluted in Dulbecco’s Modified Eagle’s Medium, consisting of 10% Fetal Bovine Serum, and added to cells grown and cultured for 24 h in a 5% CO2-humidified incubator at 37 °C. Then, the activity of lactate dehydrogenase released from damaged cells was determined in the collected supernatant aliquots using an ELISA endpoint assay (Benchmark Plus, Bio-Rad, Hercules, CA, USA). As positive and negative controls, respectively, 0.1% Triton X-100 in the assay medium and the assay medium only were used. Cell viability, shown as mean values ± SDs (n = 3), was expressed as a relative percentage of the OD values determined at 600 nm in compound-treated cells and the control.

[12] = Reducing power assay (FRAC, Fe3+ to Fe2+); settings: 0-1 mg/mL, absorbance 700 nm
Experimental: Secondly, FRAC was determined over the concentration range of 0.0−1 mg/mL via monitoring Fe^3+−Fe^2+ transformation in the presence of the studied compounds and the reference antioxidant BHT to estimate the values of efficient concentration (EC50), expressed in mM.
The reducing power of the studied compounds was assessed according to Oyaizu’s method. Briefly, different concentrations (ranging from 0 to 1 mg/mL) of each tested compound were first mixed with 1 mL of 0.2 M sodium phosphate buffer (pH 6.6) and 1 mL of 1% potassium ferricyanide (K3Fe(CN)6) and incubated at 50 °C for 20 min. After the addition of 1.25 mL of 20% trichloroacetic acid (TCA), the mixture was centrifuged for 10 min at 3000 rpm and the upper layer solution was then mixed with 0.5 mL of 0.1% fresh ferric chloride and an equal volume of deionized water. Finally, the absorption of the resulting mixture was measured at 700 nm using a UV spectrophotometer against distilled water as the blank, while butylated hydroxytoluene (BHT) was used as a positive control. The sample ferric reducing power capability was indicated by increased absorbance.

[13] = system: S. aureus (ATCC 25923); experiment: Antibacterial viability (CFU) assay, IC50; assay type: cell-based; settings: Staphylococcus aureus, ATCC25923
Experimental: as §1, §2

[14] = system: B. subtilis (ATCC 6633); experiment: Antibacterial viability (CFU) assay, IC50; assay type: cell-based
Experimental: as §1, §2

[15] = system: S. enteric (ATCC 43972); experiment: Antibacterial viability (CFU) assay, IC50; assay type: cell-based; settings: read-out: IC50
Experimental: as §1, §2

[16] = system: B. cereus (ATCC 14579); experiment: Antibacterial viability (CFU) assay, IC50; assay type: cell-based; settings: Bacillus cereus, ATCC14579
Experimental: as §1, §2

[17] = system: K. pneumonia (ATCC 700603); experiment: Antibacterial viability (CFU) assay, IC50; assay type: cell-based; settings: Klebsiella pneumoniae, ATCC700603
Experimental: as §1, §2

[18] = system: S. epidermidis (ATCC 14990); experiment: Antibacterial viability (CFU) assay, IC50; assay type: cell-based; settings: Staphylococcus epidermidis, ATCC14990
Experimental: as §1, §2

[19] = system: E. coli (ATCC 25966); experiment: Antibacterial viability (CFU) assay, IC50; assay type: cell-based; settings: Escherichia coli, ATCC25966; E. coil (ATCC 25966)
Experimental: as §1, §2

[20] = system: P. aeruginosa (ATCC 27853); experiment: Antibacterial viability (CFU) assay, IC50; assay type: cell-based; settings: Pseudomonas aeruginosa, ATCC27853
Experimental: as §1, §2

[21] = system: E. faecalis (ATCC 29122); experiment: Antibacterial viability (CFU) assay, IC50; assay type: cell-based; settings: Enterococcus faecalis, ATCC29122
Experimental: as §1, §2

[22] = read-out: Mean IC50 (µM) of cytotoxicity
[23] = read-out: Mean IC50 (µg/mL) of cytotoxicity
[24] = Bacillus subtilis, ATCC6633, B. subtilis (ATCC 6633)

With CC1=C(C(=O)OCc2ccccc2)C(c2ccc(Cl)cc2Cl)C(C#N)=C(N)O1 (stereo not drawn) [4m, 6-Amino-5-cyano-4-(2,4-dichloro-phenyl)-2-methyl-4H-pyran-3-carboxylic acid benzyl ester] the IC50 [1] was 0.421 ± 0.017 mM, the “DPPH Radical Scavenging Effenciency (%) at 1 mg/mL” value [1] was 69.00% and 69.0 ± 2.83% and the melting point was 146 to 148 °C. The “IZ (mm)” value [2] was 17.50 mm and 17.50 ± 0.71 mm, the “IZ (mm)” value [3] was 21.50 ± 0.71 mm and the “IZ (mm)” value [4] was 8.5 ± 0.7 mm. For the same compound, the “IZ (mm)” value [5] was 18.50 ± 0.71 mm, the “IZ (mm)” value [6] was 6.5 ± 0.7 mm and the “IZ (mm)” value [7] was 18.50 ± 0.71 mm. The “IZ (mm)” value [8] was 5.5 ± 0.71 mm, the “IZ (mm)” value [9] was 9.5 ± 0.7 mm and the “IZ (mm)” value [10] was 20.50 ± 0.71 mm. For the same compound, the viability at 100 µg/mL [11] was 11 to 32.5%, the IC50 [11, 22] was 89.3 ± 5.05 µM and the IC50 [11, 23] was 37.1 ± 2.1 µg/mL. The EC50 [12] was 506 ± 34 µM, the IC50 [13] was 33.2 ± 1.01 µM and the IC50 ([14]; B. subtilis (ATCC 6633)) was 32.8 ± 2.05 µM. The IC50 [14, 24] was 23.6 to 36.8 µM, the IC50 [15] was 61.8 ± 2.17 µM and the IC50 [16] was 35.8 ± 1.2 µM. The IC50 [17] was 66.7 ± 2.41 µM, the IC50 [18] was 35 ± 1.88 µM and the IC50 [19] was 69.4 ± 2.89 µM. The IC50 [20] was 60.9 ± 2.17 µM and the IC50 [21] was 35.3 ± 2.22 µM.

For Cc1[nH]nc2c1C(c1cccc(O)c1Cl)C(C#N)=C(N)O2 (stereo not drawn) [5a, 6-Amino-4-(2-chloro-3-hydroxy-phenyl)-3-methyl-2,4-dihydro-pyrano[2,3-c]pyrazole-5-carbonitrile], the IC50 [1] was 0.826 ± 0.092 mM, the “DPPH Radical Scavenging Effenciency (%) at 1 mg/mL” value [1] was 45.50 ± 2.12% and the melting point was 240 to 242 °C. For the same compound, the “IZ (mm)” value [2] was 14.00 ± 1.40 mm, the “IZ (mm)” value [3] was 12.50 ± 0.71 mm and the “IZ (mm)” value [4] was 4.5 ± 0.7 mm. The “IZ (mm)” value [5] was 12.50 ± 0.71 mm, the “IZ (mm)” value [6] was 6.0 ± 1.4 mm and the “IZ (mm)” value [7] was 13.50 ± 0.71 mm. The “IZ (mm)” value [8] was 2.8 ± 0.21 mm, the “IZ (mm)” value [9] was 5.5 ± 0.7 mm and the “IZ (mm)” value [10] was 10.50 ± 0.71 mm. For the same compound, the viability at 100 µg/mL [11] was 11 to 32.5%, the IC50 [11, 22] was 189 ± 10.8 µM and the IC50 [11, 23] was 60 ± 3.28 µg/mL. The EC50 [12] was 363 ± 47 µM, the IC50 [13] was 43.9 ± 1.39 µM and the IC50 [14, 24] was 62.43 ± 0.46 µM. The IC50 [15] was 105 ± 1.32 µM, the IC50 [16] was 62.43 ± 0.46 µM and the IC50 [17] was 96.5 ± 4.96 µM. The IC50 [18] was 54.8 ± 1.88 µM, the IC50 [19] was 110 ± 5.95 µM and the IC50 [20] was 85.9 ± 3.3 µM. The IC50 [21] was 51.9 ± 1.39 µM.
